The values below are quoted from earlier work in patent US20070026383A1, “Methods and compositions for extracting membrane proteins” (Quintessence Biosciences, Inc., priority 2005, published 2007).

Assay in data set [1]: not given
This is another data set of the same source.

Take `CCc1c2c(nc3ccc(OC(=O)N4CCC(NCCCCC(=O)O)CC4)cc13)-c1cc3c(c(=O)n1C2)COC(=O)C3(O)CC` (centres unmarked) [APC, 7-ethyl-10[4-N-(5-aminopentanoic acid)-1piperidino]carbonyloxycamptothecin]: the “antitumor activity in vitro” value is reported as “weak antitumor activity”. Moreover, in data set [1] (relative to SN-38), the “fold weaker antitumor activity compared with SN-38” value is 500 fold.
Turning to `CCc1c2c(nc3ccc(OC(=O)N4CCC(N)CC4)cc13)-c1cc3c(c(=O)n1C2)COC(=O)[C@]3(O)CC` [NPC, 7-ethyl-10-(4-amino-1-piperidino)carbonyloxycamptothecin], the “antitumor activity in vitro” value was “weak antitumor activity”.
As to `CCc1c2c(nc3ccc(O)cc13)-c1cc3c(c(=O)n1C2)COC(=O)[C@]3(O)CC` [SN-38, 7-ethyl-10-hydroxycamptothecin], the “fold higher antitumor activity than Irinotecan” value in data set [1] (relative to Irinotecan) is 100-1,000 fold.
For the compound `CCc1c2c(nc3ccc(O[C@@H]4O[C@H](C(=O)O)[C@@H](O)[C@H](O)[C@H]4O)cc13)-c1cc3c(c(=O)n1C2)COC(=O)[C@]3(O)CC` [SN-38G, 10-O-glucuronyl-SN-38], the activity of metabolite result in data set [1] (glucuronide of SN-38) is “inactive”.
